Experimental data: ChEMBL document CHEMBL4699611, “Synthesis and evaluation of HIF-1α inhibitory activities of novel panaxadiol derivatives” (Bioorg Med Chem Lett, 2020)

Key:
Type in all cases: cell-based
Hep 3B2 [1] = experiment: Cytotoxicity against human Hep3B cells assessed as reduction in cell viability incubated for 24 hrs under normaxic condition by MTT assay
[2] = target: Hypoxia-inducible factor 1-alpha (Homo sapiens, UniProt Q16665); experiment: Inhibition of hypoxia-induced HIF1alpha transcriptional activity in human Hep3B cells co-transfected with luciferase reporter plasmid containing six copies of HREs and pRL-CMV vector assessed as reduction in luciferase activity incubated for 24 hrs under hypoxic condition by HRE-dependent dual luciferase reporter gene assay
Hep 3B2 [3] = experiment: Cytotoxicity against human Hep3B cells assessed as reduction in cell viability at 30 uM incubated for 24 hrs in presence of 20% O2 by MTT assay; details: hep 3b2, 24 h

Row | Compound | IC50 (Hep 3B2 [1]) | IC50 [2] | inhibition [2] | Activity (Hep 3B2 [3])
1 | CC1(C)CCC[C@](C)([C@H]2CC[C@]3(C)[C@@H]2[C@H](OC(=O)Cn2nnnc2-c2ccccc2)C[C@@H]2[C@@]4(C)CCC(=O)C(C)(C)[C@@H]4CC[C@]23C)O1 | > 100 µM | > 100 µM |  | 
2 | Cc1ccc(/C=C2\C[C@]3(C)[C@H]4C[C@@H](O)[C@@H]5[C@@H]([C@@]6(C)CCCC(C)(C)O6)CC[C@@]5(C)[C@]4(C)CC[C@H]3C(C)(C)\C2=N\NC(=N)N)cc1 | 11.3 µM | 37.7 µM |  | 
3 | COc1ccc(-c2nnnn2CC(=O)O[C@@H]2C[C@@H]3[C@@]4(C)CCC(=O)C(C)(C)[C@@H]4CC[C@@]3(C)[C@]3(C)CC[C@H]([C@@]4(C)CCCC(C)(C)O4)[C@@H]23)cc1 | > 100 µM | > 100 µM |  | 
4 | CC1(C)CCC[C@](C)([C@H]2CC[C@]3(C)[C@@H]2[C@H](O)C[C@@H]2[C@@]4(C)CC(=C\c5ccc(Cl)cc5)/C(=N\NC(N)=S)C(C)(C)[C@@H]4CC[C@]23C)O1 | > 100 µM | > 100 µM |  | 
5 | CC1(C)CCC[C@](C)([C@H]2CC[C@]3(C)[C@@H]2[C@H](O)C[C@@H]2[C@@]4(C)CC/C(=N\Nc5ccccc5F)C(C)(C)[C@@H]4CC[C@]23C)O1 | > 100 µM | 10.1 µM |  | 
6 | CC1(C)CCC[C@](C)([C@H]2CC[C@]3(C)[C@@H]2[C@H](O)C[C@@H]2[C@@]4(C)CC(=C\c5ccccc5F)/C(=N\NC(N)=O)C(C)(C)[C@@H]4CC[C@]23C)O1 | 5.6 µM | 5.9 µM |  | 
7 | CC1(C)CCC[C@](C)([C@H]2CC[C@]3(C)[C@@H]2[C@H](O)C[C@@H]2[C@@]4(C)CC/C(=N\Nc5ccc(F)cc5)C(C)(C)[C@@H]4CC[C@]23C)O1 | > 100 µM | 21.4 µM |  | 
8 | CC1(C)CCC[C@](C)([C@H]2CC[C@]3(C)[C@@H]2[C@H](OC(=O)CNc2nnn[nH]2)C[C@@H]2[C@@]4(C)CCC(=O)C(C)(C)[C@@H]4CC[C@]23C)O1 | > 100 µM | 36.2 µM |  | 
9 | CC1(C)CCC[C@](C)([C@H]2CC[C@]3(C)[C@@H]2[C@H](O)C[C@@H]2[C@@]4(C)CC[C@H](O)C(C)(C)[C@@H]4CC[C@]23C)O1 [PANAXADIOL] | 31.7 µM | 9.1 µM |  | 
10 | CC1(C)CCC[C@](C)([C@H]2CC[C@]3(C)[C@@H]2[C@H](O)C[C@@H]2[C@@]4(C)CC(=C\c5ccc(F)cc5)/C(=N\NC(=N)N)C(C)(C)[C@@H]4CC[C@]23C)O1 | > 100 µM | 4.8 µM |  | 
11 | CC1(C)CCC[C@](C)([C@H]2CC[C@]3(C)[C@@H]2[C@H](OC(=O)Cn2nnnc2-c2ccc4c(c2)OCO4)C[C@@H]2[C@@]4(C)CCC(=O)C(C)(C)[C@@H]4CC[C@]23C)O1 | > 100 µM | 40.9 µM |  | 
12 | CC1(C)CCC[C@](C)([C@H]2CC[C@]3(C)[C@@H]2[C@H](O)C[C@@H]2[C@@]4(C)CC/C(=N\Nc5cccc(Cl)c5)C(C)(C)[C@@H]4CC[C@]23C)O1 | > 100 µM | 36.7 µM |  | 
13 | CC1(C)CCC[C@](C)([C@H]2CC[C@]3(C)[C@@H]2[C@H](O)C[C@@H]2[C@@]4(C)CC/C(=N\Nc5ccc(F)cc5F)C(C)(C)[C@@H]4CC[C@]23C)O1 | > 100 µM | 12.8 µM |  | 
14 | Cc1ccc(N/N=C2\CC[C@]3(C)[C@H]4C[C@@H](O)[C@@H]5[C@@H]([C@@]6(C)CCCC(C)(C)O6)CC[C@@]5(C)[C@]4(C)CC[C@H]3C2(C)C)cc1 | > 100 µM | 7.1 µM |  | 
15 | CC1(C)CCC[C@](C)([C@H]2CC[C@]3(C)[C@@H]2[C@H](O)C[C@@H]2[C@@]4(C)CC(=C\c5ccc(O)cc5)/C(=N\NC(=N)N)C(C)(C)[C@@H]4CC[C@]23C)O1 | 6.3 µM | 6.2 µM |  | 
16 | CC1(C)CCC[C@](C)([C@H]2CC[C@]3(C)[C@@H]2[C@H](OC(=O)CNc2cccc(-c4nnn[nH]4)c2)C[C@@H]2[C@@]4(C)CCC(=O)C(C)(C)[C@@H]4CC[C@]23C)O1 | > 100 µM | > 100 µM |  | 

Row | Compound | IC50 (Hep 3B2 [1]) | IC50 [2] | inhibition [2] | Activity (Hep 3B2 [3])
17 | CC1(C)CCC[C@](C)([C@H]2CC[C@]3(C)[C@@H]2[C@H](O)C[C@@H]2[C@@]4(C)CC(=C\c5ccc(Cl)cc5)/C(=N\NC(N)=O)C(C)(C)[C@@H]4CC[C@]23C)O1 | 11.3 µM | 5.5 µM |  | 
18 | Cc1ccc(/C=C2\C[C@]3(C)[C@H]4C[C@@H](O)[C@@H]5[C@@H]([C@@]6(C)CCCC(C)(C)O6)CC[C@@]5(C)[C@]4(C)CC[C@H]3C(C)(C)\C2=N\NC(N)=S)cc1 | 43.1 µM | 6.1 µM |  | 
19 | CC1(C)CCC[C@](C)([C@H]2CC[C@]3(C)[C@@H]2[C@H](O)C[C@@H]2[C@@]4(C)CC/C(=N\Nc5ccccc5Cl)C(C)(C)[C@@H]4CC[C@]23C)O1 | > 100 µM | > 100 µM |  | 
20 | CC1(C)CCC[C@](C)([C@H]2CC[C@]3(C)[C@@H]2[C@H](O)C[C@@H]2[C@@]4(C)CC(=C\c5ccc(F)cc5)/C(=N\NC(N)=O)C(C)(C)[C@@H]4CC[C@]23C)O1 | > 100 µM | 11.7 µM |  | 
21 | CC1(C)CCC[C@](C)([C@H]2CC[C@]3(C)[C@@H]2[C@H](O)C[C@@H]2[C@@]4(C)CC/C(=N\Nc5ccc(Cl)cc5)C(C)(C)[C@@H]4CC[C@]23C)O1 | > 100 µM | 26 µM |  | 
22 | CC1(C)CCC[C@](C)([C@H]2CC[C@]3(C)[C@@H]2[C@H](OC(=O)Cn2nnnc2-c2ccc(Cl)cc2)C[C@@H]2[C@@]4(C)CCC(=O)C(C)(C)[C@@H]4CC[C@]23C)O1 | 42.9 µM | 12.4 µM |  | 
23 | CC1(C)CCC[C@](C)([C@H]2CC[C@]3(C)[C@@H]2[C@H](O)C[C@@H]2[C@@]4(C)CC/C(=N\Nc5ccc(Cl)cc5Cl)C(C)(C)[C@@H]4CC[C@]23C)O1 | > 100 µM | 3.7 µM | Dose-dependent effect | Non-Toxic
24 | CC1(C)CCC[C@](C)([C@H]2CC[C@]3(C)[C@@H]2[C@H](O)C[C@@H]2[C@@]4(C)CC(=C\c5cccc(F)c5)/C(=N\NC(N)=O)C(C)(C)[C@@H]4CC[C@]23C)O1 | 5.2 µM | 3.5 µM |  | 
25 | CC1(C)CCC[C@](C)([C@H]2CC[C@]3(C)[C@@H]2[C@H](O)C[C@@H]2[C@@]4(C)CC(=C\c5ccc(F)cc5)/C(=N\NC(N)=S)C(C)(C)[C@@H]4CC[C@]23C)O1 | 24.1 µM | 9 µM |  | 
26 | Cc1ccc(/C=C2\C[C@]3(C)[C@H]4C[C@@H](O)[C@@H]5[C@@H]([C@@]6(C)CCCC(C)(C)O6)CC[C@@]5(C)[C@]4(C)CC[C@H]3C(C)(C)\C2=N\NC(N)=O)cc1 | 4.1 µM | 9.8 µM |  | 
27 | Cc1cccc(N/N=C2\CC[C@]3(C)[C@H]4C[C@@H](O)[C@@H]5[C@@H]([C@@]6(C)CCCC(C)(C)O6)CC[C@@]5(C)[C@]4(C)CC[C@H]3C2(C)C)c1 | > 100 µM | 56.5 µM |  | 
28 | CC1(C)CCC[C@](C)([C@H]2CC[C@]3(C)[C@@H]2[C@H](O)C[C@@H]2[C@@]4(C)CC/C(=N\Nc5cccc(F)c5)C(C)(C)[C@@H]4CC[C@]23C)O1 | > 100 µM | 67 µM |  | 
29 | COc1ccc(/C=C2\C[C@]3(C)[C@H]4C[C@@H](O)[C@@H]5[C@@H]([C@@]6(C)CCCC(C)(C)O6)CC[C@@]5(C)[C@]4(C)CC[C@H]3C(C)(C)\C2=N\NC(=N)N)cc1 | 6.1 µM | 5.8 µM |  | 
30 | Cc1ccccc1N/N=C1\CC[C@]2(C)[C@H]3C[C@@H](O)[C@@H]4[C@@H]([C@@]5(C)CCCC(C)(C)O5)CC[C@@]4(C)[C@]3(C)CC[C@H]2C1(C)C | > 100 µM | 24.9 µM |  | 
31 | CC1(C)CCC[C@](C)([C@H]2CC[C@]3(C)[C@@H]2[C@H](O)C[C@@H]2[C@@]4(C)CC/C(=N\Nc5cccc([N+](=O)[O-])c5)C(C)(C)[C@@H]4CC[C@]23C)O1 | > 100 µM | 61.2 µM |  | 
